Results from patent publication US9060955B2, “Transdermal therapeutic system with crystallization-inhibiting protective film (release liner)” (Bayer Intellectual Property GmbH, priority 2010, dated 2015).

Assay: Solubility of GSD in the active-ingredient-containing matrix
Format: physicochemical

Solubility in the active-ingredient-containing matrix: ca. 2%
SMILES: C#C[C@]1(O)C=C[C@H]2[C@@H]3CCC4=CC(=O)CC[C@@H]4[C@H]3CC[C@@]21CC [GSD, gestodene]
